Experimental data from US20240270768A1, “A METHOD FOR OBTAINING L-GLUFOSINATE” (UPL LIMITED, priority 2021, published 2024).

Assays:
[1] = Storage stability of L-glufosinate quinine tetrahydrate salt under standard conditions, analysed by HPLC; format: physicochemical
Experimental: HPLC method: • A) Column—Zorbax SB-C8 (250×4.6 mm i.d., 5 micron) • B) Mobile Phase—0.1% OPA: Acetonitrile (v/v) 40:60 • C) Flow—1.0 ml/min. • D) UV-Wavelength—230 nm • E) Injection volume—5 μl • F) Column temperature 40 °C • G) Run time—10 min
L-glufosinate quinine tetrahydrate salt obtained in example 1 was stored under standard conditions (i.e. room temperature, normal pressure, air atmosphere) for 431 days.

[2] = versus other L-glufosinate quinine hydrates (dihydrate, hexahydrate, dodecahydrate)

In the case of C=C[C@H]1CN2CC[C@H]1C[C@H]2[C@H](O)c1ccnc2ccc(OC)cc12.CP(=O)(O)CC[C@H](N)C(=O)O.O.O.O.O [L-glufosinate quinine tetrahydrate salt], the “Duration of desirable stability on storage” value ([1]; ambient conditions and air atmosphere) is reported as “more than 430 days”, the “Moisture content after storage” value ([1]; stored 431 days at room temperature, normal pressure, air atmosphere, initial value 12.04% (Example 1)) is reported as 12.39% and the “Loss on drying after storage” value ([1]; stored 431 days at room temperature, normal pressure, air atmosphere, initial value 12.32% (Example 1)) is reported as 12.27%. The “L-glufosinate acid content (by HPLC) after storage” value ([1]; stored 431 days at room temperature, normal pressure, air atmosphere, initial value 32.70% (Example 1)) was 33.13%, the “Quinine content (by HPLC) after storage” value ([1]; stored 431 days at room temperature, normal pressure, air atmosphere, initial value 54.34% (Example 1)) was 53.14% and the “Storage stability, thermal stability and hygroscopicity compared to other hydrates” value [2] was “improved storage stability, thermal stability and non-hygroscopicity as compared to other hydrates”.
